Test results reported in ChEMBL document CHEMBL1671662, “In vitro activities of telavancin and six comparator agents against anaerobic bacterial isolates” (2009).
≈ marks a conversion by molar mass, not a printed value.

How the values were obtained:
Type in all cases: functional
Phocaeicola vulgatus = assay: Antibacterial activity against Bacteroides vulgatus by CLSI M11-A6 agar dilution method
Eggerthella lenta = assay: Antibacterial activity against Eggerthella lenta by CLSI M11-A6 agar dilution method
[1] = system: Enterocloster clostridioformis; assay: Antibacterial activity against Clostridium clostridioforme by CLSI M11-A6 agar dilution method
Bacteroides ovatus = assay: Antibacterial activity against Bacteroides ovatus by CLSI M11-A6 agar dilution method
Holdemania filiformis = assay: Antibacterial activity against Holdemania filiformis by CLSI M11-A6 agar dilution method
[2] = system: Ruminococcus flavefaciens; assay: Antibacterial activity against Ruminococcus flavefaciens by CLSI M11-A6 agar dilution method
Clostridium scindens = assay: Antibacterial activity against Clostridium scindens by CLSI M11-A6 agar dilution method
Blautia producta = assay: Antibacterial activity against Ruminococcus productus by CLSI M11-A6 agar dilution method
Ruminococcus sp. = assay: Antibacterial activity against Ruminococcus sp. by CLSI M11-A6 agar dilution method
Clostridium leptum = assay: Antibacterial activity against Clostridium leptum by CLSI M11-A6 agar dilution method
Prevotella intermedia = assay: Antibacterial activity against Prevotella intermedia by CLSI M11-A6 agar dilution method
Hoylesella oralis = assay: Antibacterial activity against Prevotella oralis by CLSI M11-A6 agar dilution method
Bacteroides fragilis = assay: Antibacterial activity against Bacteroides fragilis by CLSI M11-A6 agar dilution method
Prevotella denticola = assay: Antibacterial activity against Prevotella P denticola by CLSI M11-A6 agar dilution method
[3] = system: Peptostreptococcus anaerobius; assay: Antibacterial activity against Peptostreptococcus anaerobius by CLSI M11-A6 agar dilution method
Bifidobacterium bifidum = assay: Antibacterial activity against Bifidobacterium bifidum by CLSI M11-A6 agar dilution method
[4] = system: Paraclostridium bifermentans; assay: Antibacterial activity against Clostridium bifermentans by CLSI M11-A6 agar dilution method
Clostridium bolteae = assay: Antibacterial activity against Clostridium bolteae by CLSI M11-A6 agar dilution method; conditions: Enterocloster bolteae
Anaerococcus prevotii = assay: Antibacterial activity against Anaerococcus prevotii by CLSI M11-A6 agar dilution method
Clostridium glycolicum = assay: Antibacterial activity against Clostridium glycolicum by CLSI M11-A6 agar dilution method; conditions: Terrisporobacter glycolicus
Fusobacterium mortiferum = assay: Antibacterial activity against Fusobacterium mortiferum by CLSI M11-A6 agar dilution method
Prevotella disiens = assay: Antibacterial activity against Prevotella P disiens by CLSI M11-A6 agar dilution method
Thomasclavelia ramosa = assay: Antibacterial activity against Clostridium ramosum by CLSI M11-A6 agar dilution method
Bifidobacterium dentium = assay: Antibacterial activity against Bifidobacterium dentium by CLSI M11-A6 agar dilution method
[5] = system: Propionibacterium propionicum; assay: Antibacterial activity against Propionibacterium propionicus by CLSI M11-A6 agar dilution method; conditions: Arachnia propionica
Hoylesella loescheii = assay: Antibacterial activity against Prevotella loescheii by CLSI M11-A6 agar dilution method
Clostridium beijerinckii = assay: Antibacterial activity against Clostridium beijerinckii by CLSI M11-A6 agar dilution method
Parvimonas micra = assay: Antibacterial activity against Peptostreptococcus micros by CLSI M11-A6 agar dilution method
[6] = system: Parabacteroides distasonis; assay: Antibacterial activity against Parabacteroides distasonis by CLSI M11-A6 agar dilution method
Bifidobacterium breve = assay: Antibacterial activity against Bifidobacterium breve by CLSI M11-A6 agar dilution method
Ruminococcus gnavus = assay: Antibacterial activity against Ruminococcus gnavus by CLSI M11-A6 agar dilution method; conditions: Mediterraneibacter gnavus
Bilophila wadsworthia = assay: Antibacterial activity against Bilophila wadsworthia by CLSI M11-A6 agar dilution method
Clostridium tertium = assay: Antibacterial activity against Clostridium tertium by CLSI M11-A6 agar dilution method
Actinomyces naeslundii = assay: Antibacterial activity against Actinomyces naeslundii by CLSI M11-A6 agar dilution method
[7] = system: Prevotella melaninogenica; assay: Antibacterial activity against Prevotella melaninogenica by CLSI M11-A6 agar dilution method
[Clostridium] innocuum = Antibacterial activity against Clostridium innocuum by CLSI M11-A6 agar dilution method
[8] = system: Sutterella wadsworthensis; assay: Antibacterial activity against Sutterella wadsworthensis by CLSI M11-A6 agar dilution method
[9] = system: Streptococcus constellatus; assay: Antibacterial activity against Streptococcus constellatus by CLSI M11-A6 agar dilution method

`CCC[C@@H]1C[C@@H](C(=O)N[C@@H]([C@H]2O[C@H](SC)[C@H](O)[C@@H](O)[C@H]2O)[C@H](C)Cl)N(C)C1` [CLINDAMYCIN] was tested, and the MIC50 (Phocaeicola vulgatus) was over 128 µg/mL, the MIC90 (Phocaeicola vulgatus) was over 128 µg/mL and the MIC50 (Eggerthella lenta) was at most 0.12 µg/mL. It also gave an MIC90 (Eggerthella lenta) of 1 µg/mL (≈ 2.35 µM), an MIC90 [1] of 2 µg/mL (≈ 4.71 µM) and an MIC50 (Bacteroides ovatus) of 2 µg/mL (≈ 4.71 µM). It also gave an MIC90 (Bacteroides ovatus) of over 128 µg/mL, an MIC50 (Holdemania filiformis) of at most 0.12 µg/mL and an MIC90 (Holdemania filiformis) of 1 µg/mL (≈ 2.35 µM). The MIC50 [2] was at most 0.12 µg/mL, the MIC90 [2] was 2 µg/mL (≈ 4.71 µM) and the MIC90 (Clostridium scindens) was 4 µg/mL (≈ 9.41 µM). It also gave an MIC50 (Blautia producta) of at most 0.12 µg/mL, an MIC90 (Blautia producta) of 2 µg/mL (≈ 4.71 µM) and an MIC90 (Ruminococcus sp.) of over 128 µg/mL. For the same compound, the MIC90 (Clostridium leptum) was 4 µg/mL (≈ 9.41 µM), the MIC (Prevotella intermedia) was at most 0.12 µg/mL and the MIC50 (Prevotella intermedia) was at most 0.12 µg/mL. The MIC90 (Prevotella intermedia) was at most 0.12 µg/mL, the MIC (Hoylesella oralis) was at most 0.12 µg/mL and the MIC50 (Hoylesella oralis) was at most 0.12 µg/mL. It also gave an MIC90 (Hoylesella oralis) of at most 0.12 µg/mL, an MIC50 (Bacteroides fragilis) of 0.5 µg/mL (≈ 1.18 µM) and an MIC90 (Bacteroides fragilis) of over 128 µg/mL. It also gave an MIC (Prevotella denticola) of at most 0.12 µg/mL, an MIC50 (Prevotella denticola) of at most 0.12 µg/mL and an MIC90 (Prevotella denticola) of at most 0.12 µg/mL. The MIC90 [3] was over 128 µg/mL, the MIC50 (Bifidobacterium bifidum) was at most 0.12 µg/mL and the MIC90 (Bifidobacterium bifidum) was 1 µg/mL (≈ 2.35 µM). It also gave an MIC90 [4] of 4 µg/mL (≈ 9.41 µM), an MIC50 (Clostridium bolteae) of 2 µg/mL (≈ 4.71 µM) and an MIC90 (Clostridium bolteae) of 4 µg/mL (≈ 9.41 µM). The MIC90 (Anaerococcus prevotii) was over 128 µg/mL, the MIC90 (Clostridium glycolicum) was 4 µg/mL (≈ 9.41 µM) and the MIC50 (Fusobacterium mortiferum) was 1 µg/mL (≈ 2.35 µM). For the same compound, the MIC90 (Fusobacterium mortiferum) was 32 µg/mL (≈ 75.3 µM), the MIC (Prevotella disiens) was at most 0.12 µg/mL and the MIC50 (Prevotella disiens) was at most 0.12 µg/mL. The MIC90 (Prevotella disiens) was at most 0.12 µg/mL, the MIC50 (Thomasclavelia ramosa) was 4 µg/mL (≈ 9.41 µM) and the MIC90 (Thomasclavelia ramosa) was 8 µg/mL (≈ 18.8 µM). For the same compound, the MIC50 (Bifidobacterium dentium) was at most 0.12 µg/mL, the MIC90 (Bifidobacterium dentium) was 1 µg/mL (≈ 2.35 µM) and the MIC50 [5] was at most 0.12 µg/mL. It also gave an MIC90 [5] of 1 µg/mL (≈ 2.35 µM), an MIC (Hoylesella loescheii) of at most 0.12 µg/mL and an MIC50 (Hoylesella loescheii) of at most 0.12 µg/mL. For the same compound, the MIC90 (Hoylesella loescheii) was at most 0.12 µg/mL, the MIC90 (Clostridium beijerinckii) was 4 µg/mL (≈ 9.41 µM) and the MIC90 (Parvimonas micra) was over 128 µg/mL. For the same compound, the MIC50 [6] was 2 µg/mL (≈ 4.71 µM), the MIC90 [6] was 64 µg/mL (≈ 151 µM) and the MIC50 (Bifidobacterium breve) was at most 0.12 µg/mL. For the same compound, the MIC90 (Bifidobacterium breve) was 1 µg/mL (≈ 2.35 µM), the MIC50 (Ruminococcus gnavus) was at most 0.12 µg/mL and the MIC90 (Ruminococcus gnavus) was 0.25 µg/mL (≈ 0.588 µM). It also gave an MIC50 (Bilophila wadsworthia) of 0.5 µg/mL (≈ 1.18 µM), an MIC90 (Bilophila wadsworthia) of 1 µg/mL (≈ 2.35 µM) and an MIC90 (Clostridium tertium) of 4 µg/mL (≈ 9.41 µM). For the same compound, the MIC50 (Actinomyces naeslundii) was at most 0.12 µg/mL, the MIC90 (Actinomyces naeslundii) was 1 µg/mL (≈ 2.35 µM) and the MIC [7] was at most 0.12 µg/mL. It also gave an MIC50 [7] of at most 0.12 µg/mL, an MIC90 [7] of at most 0.12 µg/mL and an MIC50 ([Clostridium] innocuum) of 1 µg/mL (≈ 2.35 µM). It also gave an MIC90 ([Clostridium] innocuum) of over 128 µg/mL, an MIC50 [8] of 16 µg/mL (≈ 37.6 µM) and an MIC90 [8] of 128 µg/mL (≈ 301 µM). The MIC90 [9] was 0.5 µg/mL (≈ 1.18 µM).
